Test results published in patent US8435958B2, “Method for producing pectin hydrolysis products” (N.V. Nutricia, priority 2000, dated 2013).

Assays:
E. coli [1] = settings: from EP 0 716 605 B1; cited from earlier work
staphylococcus aureus = assay: Prevention of adhesion of pathogenic germs to human uroepithelial cells; assay type: cell-based; settings: human uroepithelial cells pre-incubated 1, 2 or 3 hours, various concentrations
Procedure: (§1) For this test, human uroepithelian cells obtained by centrifugation from morning urine as well as two strains of staphylococcus aureus and E. coli were used, each as a suspension with 10^9 germs/mL.
(§2) Epithelial cells and germ suspension were incubated together at 37° C. for 30 minutes. The epithelial cells then were separated from the non-adherent germs by membrane filtration (8μ). The filters were washed several times, placed into normal saline, and the epithelial cells were suspended in it. After centrifugation of the suspension in saline, the pellet was applied to slides and stained according to May-Grünwald and Giemsa. The number of germs adhering to 50 epithelial cells were counted. This number represented the blank value. Epithelial cells to which no germ solution had been added were used as a control.
(§3) In the main test, epithelial first were incubated with aqueous solutions of various concentrations consisting of pectin hydrolysis products produced according to the invention (according to Example 1) for 1, 2 or 3 hours. They were then combined with the germ suspension and treated further as described above. The measuring value was obtained by counting the germs adhering to 50 epithelial cells.

E. coli [2] = assay: as above; assay type: cell-based; settings: human uroepithelial cells pre-incubated 1, 2 or 3 hours, various concentrations
Procedure: as §1, §2, §3

Caco-2 cells = tested on: Caco-2 cells
Source text: The test is based on the migration of cells through the pores of a nucleopore polycarbonate filter in a protein gel that contains several ECM proteins, such as, for example, type 1 and type III collagen, fibronectin, and laminin, to a nitrocellulose filter. […] As a control, the effect of glucose on the invasive capacity of Caco-2 cells was studied.

[3] = target: T1, galectin-3 on Caco-2 colon cancer cells (Homo sapiens, UniProt P17931); assay: Inhibition of anti-galectin-3 monoclonal antibody binding, immunofluorescence/flow cytometry
T1 construct: endogenous in cells; host or cells: Caco-2 human colon cancer cells
Procedure: (§4) The expression of galectin-3 on colon cancer cells was determined with immunofluorescence/flow cytometry methods using an anti-galectin-3-specific monoclonal antibody (mouse-Ig) and a corresponding anti-mouse FITC-coupled secondary antibody.

[4] = target: T2, galectin-3 on HT 29 colon cancer cells (Homo sapiens, UniProt P17931); assay: as above
T2 construct: endogenous in cells; host or cells: HT-29 (HT 29) human colon cancer cells
Procedure: as §4

Caco-2 = assay: Growth of colon cancer cell lines on extracellular matrix (ECM), living cell count by trypan blue; assay type: cell-based, human; settings: for Reduction in Cell Growth: 48 hours
Procedure: (§5) Human colon cancer cell lines HT-29 or Caco-2 were seeded with a cell density of 1×10^4 cells/ml in 15 mm Petri dishes and cultivated in medium RPMI 1640+10% fetal calf serum (FCS) (HT-29) or, respectively, in MEM+10% FCS (Caco-2) at 37° C. under an atmosphere containing 5% CO2. The cells were left to grow for 1 to 2 days until reaching confluence. The dishes were then washed once with PBS, then incubated with PBS and 0.5% Triton X-100 for 30 minutes at room temperature on an agitator, and then washed 3 times with PBS. The previously described cell lines then were again seeded on the dishes with the ECM layers prepared in this way. The influence of the pectin hydrolysate on cell growth was determined by counting the cells. For this, the cells were again removed after 48 hours with trypsine/EDTA solution in HBBS (10 min) and were washed in PBS solution. Then the number of living cells was determined by staining with trypan blue solution (650 mg trypan blue in 400 ml 0.9% NaCl, 1:1 (v/v)) in a Neubauer counting chamber. As a control, experiments were performed with glucose.

HT-29 = assay: as above; assay type: cell-based, human; settings: for Reduction in Cell Growth: 48 hours
Procedure: as §5

[5] = Caco-2, in relation to the concentration used
[6] = HT 29, in relation to the concentration used

T1 sequence (P17931 whole entry): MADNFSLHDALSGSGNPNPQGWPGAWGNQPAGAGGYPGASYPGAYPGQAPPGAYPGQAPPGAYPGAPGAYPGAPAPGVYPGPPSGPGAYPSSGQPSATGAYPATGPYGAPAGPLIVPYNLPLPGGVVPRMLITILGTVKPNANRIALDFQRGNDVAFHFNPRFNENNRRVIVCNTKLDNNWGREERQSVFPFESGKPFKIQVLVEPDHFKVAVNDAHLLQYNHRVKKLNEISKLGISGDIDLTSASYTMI
T2 sequence (P17931 whole entry): as above

Question: Which “blocking of the adhesion” value (E. coli [1]) does the source give for `O=C(O)[C@H]1O[C@H](O[C@@H]2[C@H](O)[C@@H](O)[C@@H](O[C@@H]3[C@H](O)[C@@H](O)C(O)O[C@@H]3C(=O)O)O[C@@H]2C(=O)O)[C@H](O)[C@@H](O)[C@H]1O` (some centres unmarked) [trigalacturonide] here?
Answer: ≤ 84.6%

Question: What does the source list for `OC[C@H]1O[C@H](OC[C@H]2O[C@H](O[C@]3(CO)O[C@H](CO)[C@@H](O)[C@@H]3O)[C@H](O)[C@@H](O)[C@@H]2O)[C@H](O)[C@@H](O)[C@H]1O` [raffinose]?
Answer: blockage of germ adhesion to the epithelial cells (staphylococcus aureus): No reduction; blockage of germ adhesion to the epithelial cells (E. coli [2]): No reduction

Question: Which “reduction of the invasive capacity of Caco-2 cells (text summary of Table 2)” value (Caco-2 cells) does the source give for `O=C[C@H](O)[C@@H](O)[C@H](O)[C@H](O)CO` [Glucose, glucose] here?
Answer: only caused a slight reduction

Question: What about the “Reduction of Binding Monoclonal Anti-Galectin-3 Antibody” value ([3]; Caco-2, concentration 0.01%) of the same compound?
Answer: 0

Question: And the “Reduction of Binding Monoclonal Anti-Galectin-3 Antibody” value ([3]; Caco-2, concentration 0.1%)?
Answer: 0

Question: And the “Reduction of Binding Monoclonal Anti-Galectin-3 Antibody” value ([3]; Caco-2, concentration 1.0%)?
Answer: 0

Question: And the “reduction of the binding of the monoclonal anti-galectin-3 antibody (Table 3)” value [3, 5]?
Answer: not at all or only slightly

Question: And the “Reduction of Binding Monoclonal Anti-Galectin-3 Antibody” value ([4]; HT 29, concentration 0.01%)?
Answer: 0

Question: What about the “Reduction of Binding Monoclonal Anti-Galectin-3 Antibody” value ([4]; HT 29, concentration 0.1%) of the same compound?
Answer: 0

Question: And the “Reduction of Binding Monoclonal Anti-Galectin-3 Antibody” value ([4]; HT 29, concentration 1.0%)?
Answer: 2

Question: And the “reduction of the binding of the monoclonal anti-galectin-3 antibody (Table 3)” value [4, 6]?
Answer: not at all or only slightly

Question: And the “Reduction in Cell Growth” value (Caco-2; Caco-2, concentration 0.01%)?
Answer: 0%

Question: And the “Reduction in Cell Growth” value (Caco-2; Caco-2, concentration 0.1%)?
Answer: 0%

Question: And the “Reduction in Cell Growth” value (Caco-2; Caco-2, concentration 1.0%)?
Answer: 0%

Question: What about the “reduced cell growth (text summary of Table 1)” value (Caco-2; [5]) of the same compound?
Answer: no influence

Question: What about the “Reduction in Cell Growth” value (HT-29; HT 29, concentration 0.01%) of the same compound?
Answer: 0%

Question: And the “Reduction in Cell Growth” value (HT-29; HT 29, concentration 0.1%)?
Answer: 1%

Question: And the “Reduction in Cell Growth” value (HT-29; HT 29, concentration 1.0%)?
Answer: 0%

Question: And the “reduced cell growth (text summary of Table 1)” value (HT-29; [6])?
Answer: no influence

Question: Which “blockage of germ adhesion to the epithelial cells” value (“blockage of germ adhesion” below) (staphylococcus aureus) does the source give for `OC[C@H]1O[C@H](O[C@]2(CO)O[C@H](CO[C@H]3O[C@H](CO)[C@@H](O)[C@H](O)[C@H]3O)[C@@H](O)[C@@H]2O)[C@H](O)[C@@H](O)[C@@H]1O` [isomelezitose] here?
Answer: No reduction

Question: What about the “blockage of germ adhesion” value (E. coli [2]) of the same compound?
Answer: No reduction

Question: For `O=C(O)[C@H]1OC(O)[C@H](O)[C@@H](O)[C@H]1O` (some centres unmarked) [monogalacturonic acid], which “blocking of the adhesion” value (E. coli [1]) is on record?
Answer: no blocking

Question: For `O=C(O)[C@H]1O[C@H](O[C@@H]2[C@H](O)[C@@H](O)[C@@H](O)O[C@@H]2C(=O)O)[C@H](O)[C@@H](O)[C@H]1O` [digalacturonide], which “blocking of the adhesion” value (E. coli [1]) is on record?
Answer: ≤ 91.7%

Question: For `OC[C@H]1O[C@@](CO)(OC[C@@]2(OC[C@@]3(O[C@H]4O[C@H](CO)[C@@H](O)[C@H](O)[C@H]4O)O[C@H](CO)[C@@H](O)[C@@H]3O)O[C@H](CO)[C@@H](O)[C@@H]2O)[C@@H](O)[C@@H]1O` [nystose], which “blockage of germ adhesion” value (staphylococcus aureus) is on record?
Answer: No reduction

Question: What about the “blockage of germ adhesion” value (E. coli [2]) of the same compound?
Answer: No reduction
